Positions of bridges follow the written chain, without caps; N, C: chain ends. Non-standard residues stand in square brackets, D forms with d. No end group written: not given here.

The test system of test [1] is T84 cells monolayer. Particulars: for effect on SP-333 stimulation of Isc: T84 cells monolayer, opioid either pre or post SP-333 treatment; for effect on 1 μM SP-333-stimulated Isc: apical pre-treatment with 5 μM opioid for 5 min.
Test [2] concerns rat jejunum tissue. The settings on record: for effect of inhibitor on SP-333-stimulated Isc / effect on 1 μM SP-333-stimulated Isc: rat jejunum; for effect of inhibitor on SP-333-stimulated Isc: inhibitor pretreatment 5 min, then 1 μM SP-333; for effect on SP-333 stimulation of Isc: rat jejunum tissue, opioid either pre or post SP-333 treatment; for effect on 1 μM SP-333-stimulated Isc: apical pre-treatment with 5 μM opioid for 5 min.

Test [3] deals with female Sprague-Dawley rats. Briefly: methadone-induced delay in rat GI transit (charcoal meal). It is filed as in vivo. Here is the method: (§1) Animals: All study procedures were conducted under a study outline approved by the Institutional Animal Care and Use Committee of MB Research Labs (Spinnerstown, Pa.) or Lampire Biological Laboratories (Pipersville, Pa.). Seven to eight week old female Sprague-Dawley rats [Crl:CD(SD)], weighing between ˜180-210 grams, were obtained from Charles River Laboratories and allowed to acclimate for a week. Animals were maintained on a 12 hour light-dark cycle. For intestinal tissue collection and evaluation of GI transit, rats were fasted for at least 18 hours before the experiment, with free access to water.
(§2) The ability of opioids to delay GI transit in rats was tested by either administering 0 (vehicle) 0.25, 1 and 2.5 mg/kg of morphine or 0 (vehicle), 0.25, 2.5 and 5 mg/kg of methadone (1.5 ml/kg dose volume) by IP injection. Water served as vehicle control. Ten minutes later, a 2 mL charcoal meal consisting of 10% activated charcoal (Sigma-Aldrich, St. Louis, Mo.) and 10% gum Arabic (Sigma-Aldrich, St. Louis, Mo.) in water was administered via oral gavage. Rats were euthanized 10 min after the charcoal meal via IP injection of 150 mg/kg Beuthanasia-D solution (sodium pentobarbital, 390 mg/mL). The small intestine was removed and the total length from the pyloric sphincter to the ileocecal junction was recorded, as well as the distance traveled by the leading edge of the charcoal. Intestinal transit was determined by calculating the ratio (expressed as a percentage) of the distance between the pyloric sphincter and the leading edge of the charcoal to the distance between the pyloric sphincter and the ileocecal junction.
To evaluate the ability of SP-333 to reverse methadone induced delayed GI transit, animals were administered 2.5 mg/kg of methadone by IP injection. Ten minutes later, an oral gavage of 0 (vehicle), 0.1, 0.5, 2.5, 5 and 50 mg/kg of SP-333 (1.5 ml/kg dose volume) was administered followed immediately by a 2 mL oral gavage of the charcoal meal. Ten minutes after the charcoal meal, animals were euthanized and intestinal transit was calculated as described above.

Test [4] concerns female Sprague-Dawley CD rats. Briefly: GI transit delay induced by repeated methadone administration in rats. The class given is in vivo, rat. Particulars: after 16 doses (once daily; 7 doses at 5 mg/kg and 9 doses at 2.5 mg/kg). The procedure: The ability of SP-333 to alleviate GI transit delay induced by repeated methadone administration was also evaluated in the similar manner. Female Sprague-Dawley CD rats 7 to 8 weeks of age (n=7/group) received via IP injection 16 doses of methadone (once daily; 7 doses @ 5 mg/kg and 9 doses @ 2.5 mg/kg). Ten minutes following each methadone dose, each group received an oral gavage of vehicle, 2.5, and 5 mg/kg of SP-333. At the end of the dosing regimen, animals were fasted overnight and GI transit was evaluated as described above.

The subject of test [5] is female Sprague-Dawley CD rats. Briefly: methadone-induced constipation in rats (fecal output). The settings on record: for average number of fecal pellets over 4 h, lower compared to the vehicle group: light cycle. The class given is in vivo, rat. The procedure: To identify the methadone dose that induces constipation in rats, female Sprague-Dawley CD rats 7 to 8 weeks of age (n=6/group) were administered 0 (vehicle), 2.5, 5, and 7.5 mg/kg of methadone (1.5 ml/kg dose volume) by IP injection once a day for 5 days. Fecal pellets were collected at 4 h intervals during the light cycle and average number of pellets was recorded for each group during the course of the study following daily dose administrations of methadone.
To evaluate the ability of SP-333 to relieve methadone-induced constipation, female Sprague-Dawley CD rats 7 to 8 weeks of age (n=7/group) were administered 5 mg/kg of methadone (or vehicle) each day for 7 days via IP injection to induce constipation. Ten minutes following the IP dose each day, an oral gavage of 2.5, and 5 mg/kg of SP-333 or vehicle (buffer) was administered. Fecal pellets were collected at 4 h intervals during the light cycle and average number of pellets recorded for each group during the course of the study following daily administration of vehicle, methadone or combination of methadone and SP-333.

In test [6] the test system is female Sprague-Dawley CD rats. Described as above. It is filed as in vivo, rat.
Test [7] has as its system female Sprague-Dawley rats. Briefly: morphine-induced delay in rat GI transit (charcoal meal). It is filed as in vivo. Particulars: for GI transit slowed compared to vehicle controls: rats. Here is the method: as §1, §2
To evaluate the ability of SP-333 to reverse morphine induced delayed GI transit, animals were administered 2.5 mg/kg of morphine by IP injection followed immediately by oral gavage of 0 (vehicle), 0.5, 2.5, 5 and 50 mg/kg of SP-333 (1.5 ml/kg dose volume). Water served as vehicle control. Charcoal meal was administered ten minutes later and animals were euthanized ten minutes after the charcoal meal and intestinal transit was calculated as described above.

Test [8] addresses guanylate cyclase-C (GC-C) on T84 cells (human (T84, human carcinoma cell line), UniProt P25092 24-1073). Briefly: cell-based or functional assay.
Test [9] addresses T1, guanylate cyclase-C (GC-C) in rat jejunum (rat, UniProt P23897 23-1072).
T1 sequence (looked up): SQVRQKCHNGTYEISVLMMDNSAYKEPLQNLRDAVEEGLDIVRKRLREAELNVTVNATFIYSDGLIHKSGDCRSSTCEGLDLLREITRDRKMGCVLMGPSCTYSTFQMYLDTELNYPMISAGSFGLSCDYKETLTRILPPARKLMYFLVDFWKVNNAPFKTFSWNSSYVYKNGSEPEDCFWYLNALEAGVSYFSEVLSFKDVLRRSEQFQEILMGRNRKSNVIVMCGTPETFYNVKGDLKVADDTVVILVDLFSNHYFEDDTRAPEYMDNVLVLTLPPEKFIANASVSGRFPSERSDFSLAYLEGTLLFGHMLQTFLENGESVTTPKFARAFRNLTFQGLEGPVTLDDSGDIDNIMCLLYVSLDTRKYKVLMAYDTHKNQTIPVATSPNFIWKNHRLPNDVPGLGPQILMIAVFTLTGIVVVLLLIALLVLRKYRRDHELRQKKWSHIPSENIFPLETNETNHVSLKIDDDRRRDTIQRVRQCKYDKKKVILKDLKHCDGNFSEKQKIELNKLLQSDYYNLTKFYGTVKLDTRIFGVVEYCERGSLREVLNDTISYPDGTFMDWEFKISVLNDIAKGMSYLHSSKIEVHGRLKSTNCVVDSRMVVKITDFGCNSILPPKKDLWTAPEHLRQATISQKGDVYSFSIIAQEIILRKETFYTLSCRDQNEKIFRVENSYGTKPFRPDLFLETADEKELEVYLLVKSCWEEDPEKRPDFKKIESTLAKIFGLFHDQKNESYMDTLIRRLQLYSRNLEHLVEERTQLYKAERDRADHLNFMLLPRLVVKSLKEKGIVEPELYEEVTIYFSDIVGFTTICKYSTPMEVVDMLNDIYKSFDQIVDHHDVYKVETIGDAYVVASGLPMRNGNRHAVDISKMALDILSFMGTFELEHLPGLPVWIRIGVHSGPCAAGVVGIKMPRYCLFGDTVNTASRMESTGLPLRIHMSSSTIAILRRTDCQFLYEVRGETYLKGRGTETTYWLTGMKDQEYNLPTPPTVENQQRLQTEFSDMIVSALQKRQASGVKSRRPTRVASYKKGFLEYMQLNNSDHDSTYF
Briefly: cell-based or functional assay.

Sequence of guanylate cyclase-C (GC-C) on T84 cells (P25092 24-1073): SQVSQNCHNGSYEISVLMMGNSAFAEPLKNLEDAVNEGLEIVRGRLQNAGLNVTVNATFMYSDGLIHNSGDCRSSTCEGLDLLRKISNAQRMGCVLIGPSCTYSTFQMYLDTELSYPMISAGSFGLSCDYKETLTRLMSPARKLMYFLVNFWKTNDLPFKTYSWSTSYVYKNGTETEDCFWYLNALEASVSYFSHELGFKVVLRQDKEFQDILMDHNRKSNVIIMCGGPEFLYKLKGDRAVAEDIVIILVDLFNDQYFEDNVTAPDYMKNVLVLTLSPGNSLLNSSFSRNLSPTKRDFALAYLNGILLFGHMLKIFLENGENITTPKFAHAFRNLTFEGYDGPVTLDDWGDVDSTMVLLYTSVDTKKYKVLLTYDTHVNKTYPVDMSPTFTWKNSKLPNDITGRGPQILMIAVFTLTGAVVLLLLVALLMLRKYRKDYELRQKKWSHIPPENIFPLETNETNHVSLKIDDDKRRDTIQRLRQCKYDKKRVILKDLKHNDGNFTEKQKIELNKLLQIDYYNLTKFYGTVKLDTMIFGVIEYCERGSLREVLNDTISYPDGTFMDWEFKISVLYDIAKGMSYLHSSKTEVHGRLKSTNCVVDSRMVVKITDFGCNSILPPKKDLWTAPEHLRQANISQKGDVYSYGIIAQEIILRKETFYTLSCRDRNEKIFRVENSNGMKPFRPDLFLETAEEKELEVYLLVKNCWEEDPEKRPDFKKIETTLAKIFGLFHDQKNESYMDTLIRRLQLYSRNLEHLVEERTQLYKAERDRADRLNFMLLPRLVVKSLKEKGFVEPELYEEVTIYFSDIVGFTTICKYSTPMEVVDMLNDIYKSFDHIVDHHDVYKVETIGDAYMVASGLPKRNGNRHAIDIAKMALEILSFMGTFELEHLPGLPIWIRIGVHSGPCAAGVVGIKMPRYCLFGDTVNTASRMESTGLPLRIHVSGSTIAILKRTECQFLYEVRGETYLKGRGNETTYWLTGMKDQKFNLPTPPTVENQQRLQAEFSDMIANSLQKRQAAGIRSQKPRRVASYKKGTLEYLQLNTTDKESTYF

As to `O=C(O)c1ccc(/C=C2\SC(=S)N(c3cccc(C(F)(F)F)c3)C2=O)cc1` [CFTRinh172], in test [1] (T84 cells, 10 μM inhibitor, vs 1 μM SP-333 alone), the “suppression in SP-333-stimulated Isc” value was determined as 80%. In [2], the “effect of inhibitor on SP-333-stimulated Isc” value is listed as “less compared to that detected in T84 cells”.

On to `Nc1ncnc2c1nc(Sc1ccc(Cl)cc1)n2[C@@H]1O[C@@H]2COP(=O)(O)O[C@H]2[C@H]1O` [CPT-cAMP], for which the “stimulation of Isc across T84 cell monolayers” value in test [1] was “stimulate Isc”.

As for `Nc1nc2c(nc(Sc3ccc(Cl)cc3)n2[C@@H]2O[C@@H]3COP(=O)(O)O[C@H]3[C@H]2O)c(=O)[nH]1` [CPT-cGMP], the “stimulation of Isc across T84 cell monolayers” value in [1] is “stimulate Isc”.

Take `[Cl][Cd][Cl]` [CdCl2]: the “decrease in SP-333-stimulated Isc” value in test [1] (T84 cells, 300 μM, 1 μM SP-333) is on record as “No appreciable decrease”. For the same molecule, in test [2], the “effect of inhibitor on SP-333-stimulated Isc” value is given as “minimal effect”.

`COC(=O)[C@@]1(OC)C[C@H]2O[C@]1(C)n1c3ccccc3c3c4c(c5c6ccccc6n2c5c31)C(=O)N(C)C4` [PKG-II inhibitor]: the “suppression of relative SP-333-stimulated Isc” value in test [1] (T84 cells, 4 μM inhibitor, 1 μM SP-333) is recorded as “approximately 35%”.

In the case of `CCC(=O)C(CC(C)N(C)C)(c1ccccc1)c1ccccc1` (stereo not drawn) [methadone], the GI transit is on record as 28% in test [3] (2.5 mg/kg methadone IP alone (vs 55% in vehicle treated)); “statistically significant reduction in GI transit” in test [3] (0.25, 2.5 and 5 mg/kg IP, rats). The “rat small intestine transit” value in test [4] is recorded as “significantly delayed rat small intestine transit”. In addition, the “average number of fecal pellets over 4 h, lower compared to the vehicle group” value is 29% in [5] (2.5 mg/kg IP once daily for 5 days); 77% in test [5] (5 mg/kg IP once daily for 5 days); 54% in test [5] (7.5 mg/kg IP once daily for 5 days); 63% in [6] (10 mg/kg IP once daily for 5 days, light cycle). For the same molecule, the “average number of fecal pellets, less vs vehicle control” value in test [5] (methadone alone, 5.0 mg/kg IP daily 7 days then 2.5 mg on days 8-16) was found to be 82%. The “effect on SP-333 stimulation of Isc” value in test [1] and in test [2] was “did not alter stimulation of Isc” throughout. The “effect on 1 μM SP-333-stimulated Isc” value in [1] (T84 cells) and in [2] was “no effect” throughout. In test [1] (T84 monolayer, 1 μM SP-333 then opioid at 20 μM, FIG. 5B), the “effect on SP-333 mediated enhancement in Isc” value is reported as “inhibited”. In test [6] (methadone alone 2.5 mg/kg IP once daily for 9 days), the “average number of fecal pellets” value is reported as “significant decrease in the average number of fecal pellets”.

`CN1CC[C@]23c4c5ccc(O)c4O[C@H]2[C@@H](O)C=C[C@H]3[C@H]1C5` [morphine] had a GI transit in [7] (2.5 mg/kg morphine IP alone (vs 53% in vehicle treated)) of 23%. The “GI transit slowed compared to vehicle controls” value in test [7] (single dose 0.25 mg/kg IP) is reported as 52%; in test [7] (single dose 1.0 mg/kg IP) it was 56%. Further, the “effect on SP-333 stimulation of Isc” value in [1] and in [2] was “did not alter stimulation of Isc” throughout. The “effect on 1 μM SP-333-stimulated Isc” value in test [1] (T84 cells) and in [2] was “negligible effect” in each case.

Take [dN]DECELCVNVACTGC[dL] (disulfide 4-12, 7-15) [SP-333]: in [8], the “EC50 of stimulation of Isc across T84 cells monolayer, apical treatment” value is 215 nM. In addition, the “EC50 of stimulation of Isc across rat jejunum tissue, apical treatment” value in [9] was 287 nM.

Values taken from patent US20160367622A1, “AGONISTS OF GUANYLATE CYCLASE USEFUL FOR THE TREATMENT OF OPIOID INDUCED DYSFUNCTIONS” (priority 2013, published 2016).
